Legend:
[1] = Test method 5: spray on tomato seedlings carrying larvae of resistant tobacco whiteflies; conditions: Bemisia tabaci
[2] = Test method 2: spray on rice seedlings, resistant brown planthopper larvae released; type: in vivo; conditions: Nilaparvata lugens, Comparative Test Example 2, 500 ppm
Method: Test compounds are made to a formulation according to a similar method to that described in the Formulation example 5, and thereto is added water containing 0.03 v/v % of Shindain (registered trademark) to prepare a diluted solution containing a prescribed concentration of the test compound.
Rice (Oryza sativa) seedling (on the developmental stage of the second true leaf) is planted in a container, and the diluted solutions are sprayed into the seedling in a ratio of 10 mL/seedling. Thereafter, 20 of 3rd instar larvae of resistant brown planthoppers (Nilaparvata lugens) (lineages collected in Kagoshima prefecture in 2018, screened with imidacloprid) are released onto the rice leaves. After 6 days, the number of the surviving insects is examined and the mortality is calculated by the following equation.
Mortality (%)={1−the number of the surviving insects/20}×100

[3] = system: resistant cotton aphids (Aphis gossypii) (lineages collected in Miyazaki prefecture in 2012, screened with imidacloprid); experiment: Test method 1: foliar spray on cucumber seedlings infested with resistant cotton aphids; type: in vivo; conditions: Comparative Test Example 1, 500 ppm
Method: Test compounds are made to a formulation according to a similar method to that described in the Formulation example 1, and thereto is added water containing 0.03 v/v % of Shindain (registered trademark) to prepare a diluted solution containing a prescribed concentration of the test compound.
Cucumber (cucumber sativus) seedling (on the developmental stage of the second true leaf) is planted in a cup, and approximately 30 resistant cotton aphids (Aphis gossypii) (all stages of life) (lineages collected in Miyazaki prefecture in 2012, screened with imidacloprid). After one day, the diluted solutions are sprayed into the seedling at a ratio of 10 mL/seedling. After 5 days, the number of the surviving insects is examined and the controlling value is calculated by the following equation.
Controlling value (%)−{1−(Cb×Tai)/(Cai×Tb)}×100
wherein the symbols in the equation represent the following descriptions. • Cb: Number of the test insects in untreated group; • Cai: Number of the surviving insects at the time of the examination in untreated group; • Tb: Number of the test insects in treated group; • Tai: Number of the surviving insects at the time of the examination in treated group;
Here the “untreated group” represents a group where a similar treatment procedure to that of treated group except not using the test compound is done.

Measured: mortality at 500 ppm

N#Cc1ccc(-c2nc(-c3c(Cl)cncc3Cl)no2)cc1 [Comparative compound 1]
10%: all assays above
